Results taken from patent publication US10166237B2, “Compounds and methods for inducing chondrogenesis” (The Scripps Research Institute, priority 2011, dated 2019).

B1: TGFβ3: "known inducers of chondrogenic differentiation (TGFβ3, BMP7 or BMP2)" (protein, UniProt P10600 301-412, looked up)
Transforming growth factor …: ALDTNYCFRNLEENCCVRPLYIDFRQDLGWKWVHEPKGYYANFCSGPCPYLRSADTTHSTVLGLYNTLNPEASASPCCVPQDLEPLTILYYVGRTPKVEQLSNMVVKSCKCS

Legend:
[1] = test system: human mesenchymal stem cells (hMSCs); experiment: chondrogenic nodule formation by hMSCs (high throughput screen); type: cell-based; settings: Homo sapiens, Mesenchymal stem cells; first value of the cell (before the slash); read-out: CHONDROGENIC μM EC50
Summary of the method: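 Primary hMSCs (10^4/well) in serum-free DMEM exposed to compounds at 5 μM for 4 days. Chondrogenic nodules stained with Nile red (binds collagens) and counted by high-content imaging with 488 laser excitation. In 96-well follow-up, 50,000 cells/well treated 4 days, formalin-fixed, stained with 1 μg/ml Rhodamine B.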

[2] = test system: primary bovine chondrocytes; experiment: inhibition of cytokine-induced nitric oxide release (Greiss reaction); type: cell-based; settings: Bos taurus, Chondrocyte; second value of the cell (after the slash); TNFα and oncostatin M, 48 hours; read-out: NO INHIBTION μM IC50
Excerpt: (§1) In the screen, hMSCs were used as a surrogate to future targeting of the resident MSCs with the cartilage joint. It was in that setting upon which we identified PRO1. In a joint injury, the primary cell type a therapeutic would have contact with is the chondrocyte. Although cartilage or chondrocyte-targeted screening has not lead to the development of a successful drug modifying osteoarthritis drug (DMOAD) to date, it is believed that a stem cell-based therapeutic would protect and even repair the existing chondrocytes. Therefore, protection of the articular chondrocytes and cartilage from a mature bovine knee was assessed. PRO1 and its analogues were incubated with primary bovine chondrocytes or cartilage explants cultures grown in the presence of TNFα and oncostatin M to mimic the cytokine-induced damage that can occur during OA. In the presence of the cytokine cocktail, in vitro cultured primary chondrocytes released 4-5 fold more nitric oxide (NO) than the untreated chondrocytes (50 μM vs 10 μM) as measured by the Greiss reaction. In cells treated with the cytokine cocktail and PRO1, the small molecule could effectively block the release of NO by up to 70% FIG. 2C). Similarly, in ex vivo treated cartilage explants, cytokine-induced release of glycosaminoglycans (GAG) was reduced by up to 60% by PRO1 (FIG. 2D). Finally, hMSC were grown in pellet culture for 21 days.
(§2) Primary hMSCs were plated (10,000/well) in 384-well plates and cultured for 18 days. The cells were fixed with 4% formalin, permeabilized with triton (0.5%), digested with 0.5 mg/ml collagenase II to unwind the collagen fibrils, and then immunostained with an antibody recognizing type II collagen. DAPI (2 μg/ml) was added to visualize the nuclei. The chondrogenic nodules stained positive for type II collagen but lacked expression of type X collagen and osteocalcin, markers for chondrocyte hypertrophy and osteoblasts, respectively (not shown). 10,000 hMSCs (passages 3-5) were plated in Greiner 384-well low-bottom plates on day 1. The cells were allowed to adhere and stimulated for 48 hrs (days 2-3) with the indicated stimuli in MSC growth media (Millipore). The media was then removed and replaced with serum-free DMEM for an additional 16 days. This media was replenished on days 10 and 15 of the assay. Primary bovine chondrocytes were isolated from the articular surfaces from mature knees. After one week of culture, 8,500 cells were trypsinized and plated in Greiner 384-well white clear-bottom plates in growth media. […] 20 μl of the supernatant was mixed with 20 μl of the Greiss reagent and quantitated at 540 nm as described by the Promega kit instructions. Bovine cartilage explants (cut in circular explants in a 96 well plate) were cultured in the presence of 20 ng/ml TNFα and 10 ng/ml oncostatin M to induce GAG release for 72 hours (FIG. 2D). PRO1 was added at the indicated concentrations during the entire 72 hrs. […] Parafin sections were hydrated, incubated in low pH Antigen unmasking solution (Vector) at 90 C for 10 minutes, permeabilized with 0.1% collagenase II (only for the sections stained with type II collagen) for 10 minutes, blocked with CAS block for 10 minutes and then incubated with the primary antibody (type II collagen, aggrecan or Timp1) antibody (Abcam) overnight at 4 C. The antigens were visualized through standard ABC detection methods and developed with DAB. Representative of 3 sections stained/treatment group (independent experiments).

[3] = test system: hMSCs; experiment: type II collagen expression in hMSC cultures (18 day assay); type: cell-based, human; settings: Homo sapiens
Description: The chondrogenic differentiation event was initiated quickly even though a fully differentiated chondrocyte phenotype cannot be assessed prior to 14 days in culture. In an 18 day assay, compound treatment was only required for the first 48 hrs and followed by removal and replacement of the media (in the absence of stimuli, FIG. 2B). The promotion of chondrogenic differentiation was not altered or enhanced upon longer treatment with the stimuli (data not shown).
as §2

[4] = test system: bovine cartilage explants; experiment: cytokine-induced GAG release from cartilage explants ex vivo; type: cell-based; settings: 1 μM (or less); compared with PRO1
Excerpt: as §1, with “In cells treated with the cytokine cocktail and PRO1, the small molecule could effectively block the release of NO by up to 70% FIG. 2C). Similarly, in ex vivo treated cartilage explants, cytokine-induced release of glycosaminoglycans (GAG) was reduced by up to 60% by PRO1 (FIG. 2D). Finally, hMSC were grown in pellet culture for 21 days.” left out
Primary hMSCs were plated (10,000/well) in 384-well plates and cultured for 18 days. […] 20 μl of the supernatant was mixed with 20 μl of the Greiss reagent and quantitated at 540 nm as described by the Promega kit instructions. […]

Molecule | EC50 [1] [µM] | IC50 [2] [µM] | EC50 [3] [µM] | chondro-protective activities [4]
O=C(O)c1ccccc1C(=O)Nc1ccc(Nc2ccccc2)cc1 [LK7] | > 10 | > 10 | > 10 | 
O=C(O)c1cc(F)ccc1C(=O)Nc1ccc(-c2ccccc2)cc1 [AKT-F] | > 10 | > 10 | > 10 | 
O=C(O)c1ccccc1C(=O)Nc1ccc(CCCc2ccccn2)cc1 [LK15, 2-((4-(3-(pyridin-2-yl)propyl)phenyl)carbamoyl)benzoic acid] | 0.12 | > 10 | > 10 | 
N#CCc1ccc(NC(=O)c2ccccc2C(=O)O)cc1 [Compound L13] | > 10 | > 10 | > 10 | 
NS(=O)(=O)c1ccc(NC(=O)c2ccccc2C(=O)O)cc1 [LK8] | 9.1 | > 10 | > 10 | 
CC(C)CNC(=O)c1ccccc1C(=O)Nc1ccc(-c2ccccc2)cc1 [AKT-iPr] | 0.0015 | > 10 | 6.98 | 
C[C@@H](C(=O)Nc1ccc(Cl)cn1)N1Cc2ccccc2C1=O [SMA-1*] | > 10 | 0.04 | 0.37 | 
Cc1ccc(C(=O)Nc2ccc(C#N)cc2)cc1 [LK20b] | 0.014 | > 10 | > 10 | 
O=C(O)c1cc(S(=O)(=O)c2ccc(C(=O)Nc3ccc(-c4ccccc4)cc3)c(C(=O)O)c2)ccc1C(=O)Nc1ccc(-c2ccccc2)cc1 [LK4] | 3.8 | > 10 | 33.3 | 
O=C(O)c1cc(O)ccc1C(=O)Nc1ccc(-c2ccccc2)cc1 [LK22b, 2-([1,1′-biphenyl]-4-ylcarbamoyl)-5-hydroxybenzoic acid] | 0.0046 | > 10 | > 10 | 
O=C(O)c1ccccc1C(=O)Nc1ccc(-c2ccccc2)cc1 [LK18b] | 0.0015 | 2.7 | 0.05 | 
O=C(O)c1ccccc1C(=O)Nc1ccc(N2CCOCC2)cc1 [LK6, 2-((4-morpholinophenyl)carbamoyl)benzoic acid] | 9.1 | > 10 | > 10 | 
O=C(O)c1ccccc1C(=O)Nc1ccc(C(F)(F)F)cc1 [Compound L4, 2-((4-(trifluoromethyl)phenyl)carbamoyl)benzoic acid] | 9.5 | 22.1 | 11.1 | 
O=C(O)c1ccccc1C(=O)Nc1ccc(CO)cc1 [AKT-CH2OH, 2-((4-(hydroxymethyl)phenyl)carbamoyl)benzoic acid] | 0.04 | 0.27 | 8.46 | 
B1 |  |  |  | did not have the same degree of chondro-protective activities
